Results on 29 compounds are retold here after patent US11414424B2, “Cardiac sarcomere inhibitors” (Cytokinetics, Inc., priority 2018, dated 2022).

SMILES strings stand for the structures.

The test system of this assay is bovine cardiac myofibrils. Put plainly: Myofibril assay: PK/LDH-coupled steady-state ATPase activity of skinned bovine cardiac myofibrils. Format: biochemical. The conditions noted are these: Ca2+ activating to 75% of maximal rate. The method, boiled down: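 Steady-state ATPase of detergent-skinned bovine left-ventricular myofibrils (1 mg/mL), PK/LDH-coupled NADH read at 340 nm, in PIPES/MgCl2 buffer pH 6.8 with 50 μM ATP, 0.6 mM EGTA and CaCl2 set for 50% or 75% activation. Inhibition of activity measured.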
With `CNC(=O)N1CCC2(C1)C(=O)N(c1ccc(C#N)nc1)CC(=O)N2Cc1ccc(C(F)(F)F)cc1` (centres unmarked) [Compound 184, 9-(6-cyanopyridin-3-yl)-N-methyl-7,10-dioxo-6-(4-(trifluoromethyl)benzyl)-2,6,9-triazaspiro[4.5]-decane-2-carboxamide], the “CDMF75 IC15” value amounted to 25.5 µM.

With `CNC(=O)N1CCC2(C1)C(=O)N(c1ccc(C#N)cc1)CC(=O)N2Cc1ccc(Cl)cc1` (centres unmarked) [Compound 185, 6-(4-chlorobenzyl)-9-(4-cyanophenyl)-N-methyl-7,10-dioxo-2,6,9-triazaspiro[4.5]decane-2-carboxamide], the “CDMF75 IC15” value was 3.2 µM.

In the case of `CC(=O)N1CC2(C1)C(=O)N(c1ccc(C#N)cc1)CC(=O)N2Cc1ccc(C(F)(F)F)cc1` [Compound 186, 4-(2-acetyl-6,9-dioxo-5-(4-(trifluoromethyl)benzyl)-2,5,8-triazaspiro[3.5]nonan-8-yl)benzonitrile], the “CDMF75 IC15” value amounted to 15.8 µM.

With `CCC(=O)N1CC2(C1)C(=O)N(c1ccc(C#N)cc1)CC(=O)N2Cc1ccc(C(F)(F)F)cc1` [Compound 187, 4-(6,9-dioxo-2-propionyl-5-(4-(trifluoromethyl)benzyl)-2,5,8-triazaspiro[3.5]nonan-8-yl)benzonitrile], the “CDMF75 IC15” value stood at 15.9 µM.

For `COC(=O)N1CC2(C1)C(=O)N(c1ccc(C#N)cc1)CC(=O)N2Cc1ccc(C(F)(F)F)cc1` [Compound 188, methyl 8-(4-cyanophenyl)-6,9-dioxo-5-(4-(trifluoromethyl)benzyl)-2,5,8-triazaspiro[3.5]-nonane-2-carboxylate], the “CDMF75 IC15” value was 2.6 µM.

Take `CNC(=S)N1CC2(C1)C(=O)N(c1ccc(C#N)cc1)CC(=O)N2Cc1ccc(C(F)(F)F)cc1` [Compound 189, 8-(4-cyanophenyl)-N-methyl-6,9-dioxo-5-(4-(trifluoromethyl)benzyl)-2,5,8-triazaspiro[3.5]-nonane-2-carbothioamide]: the “CDMF75 IC15” value turned out to be 1.4 µM.

On to `N#Cc1ccc(N2CC(=O)N(Cc3ccc(C(F)(F)F)cc3)C3(CN(C=O)C3)C2=O)cc1` [Compound 190, 4-(2-formyl-6,9-dioxo-5-(4-(trifluoromethyl)benzyl)-2,5,8-triazaspiro[3.5]nonan-8-yl)benzonitrile], for which the “CDMF75 IC15” value stood at 4.0 µM.

With `N#Cc1ccc(N2CC(=O)N(Cc3ccc(C(F)(F)F)cc3)C3(CN(CC(F)F)C3)C2=O)cc1` [Compound 191, 4-(2-(2,2-difluoroethyl)-6,9-dioxo-5-(4-(trifluoromethyl)benzyl)-2,5,8-triazaspiro[3.5]nonan-8-yl)benzonitrile], the “CDMF75 IC15” value worked out at 14.3 µM.

As to `N#Cc1ccc(N2CC(=O)N(Cc3ccc(C(F)(F)F)cc3)C3(CN(c4ccc(C#N)cn4)C3)C2=O)cc1` [Compound 192, 6-(8-(4-cyanophenyl)-6,9-dioxo-5-(4-(trifluoromethyl)benzyl)-2,5,8-triazaspiro[3.5]nonan-2-yl)nicotinonitrile], the “CDMF75 IC15” value came out at 0.6 µM.

As to `N#Cc1ccc(N2CC(=O)N(Cc3ccc(C(F)(F)F)cc3)C3(CN(CC(F)F)C3)C2=O)cc1F` [Compound 193, 4-(2-(2,2-difluoroethyl)-6,9-dioxo-5-(4-(trifluoromethyl)benzyl)-2,5,8-triazaspiro[3.5]nonan-8-yl)-2-fluorobenzonitrile], the “CDMF75 IC15” value is 1.7 µM.

Consider `N#Cc1ccc(N2CC(=O)N(Cc3ccc(C(F)(F)F)cc3)C3(CN(C=O)C3)C2=O)cc1F` [Compound 194, 2-fluoro-4-(2-formyl-6,9-dioxo-5-(4-(trifluoromethyl)benzyl)-2,5,8-triazaspiro[3.5]nonan-8-yl)benzonitrile], for which the “CDMF75 IC15” value was 0.4 µM.

`CNC(=S)N1CC2(C1)C(=O)N(c1ccc(C#N)c(F)c1)CC(=O)N2Cc1ccc(C(F)(F)F)cc1` [Compound 195, 8-(4-cyano-3-fluorophenyl)-N-methyl-6,9-dioxo-5-(4-(trifluoromethyl)benzyl)-2,5,8-triazaspiro[3.5]nonane-2-carbothioamide]: the “CDMF75 IC15” value turned out to be 0.4 µM.

Consider `COC(=O)N1CC2(C1)C(=O)N(c1ccc(C#N)c(F)c1)CC(=O)N2Cc1ccc(C(F)(F)F)cc1` [Compound 196, methyl 8-(4-cyano-3-fluorophenyl)-6,9-dioxo-5-(4-(trifluoromethyl)benzyl)-2,5,8-triazaspiro[3.5]nonane-2-carboxylate], for which the “CDMF75 IC15” value was 0.4 µM.

Consider `CC(=O)N1CC2(C1)C(=O)N(c1ccc(C#N)c(F)c1)CC(=O)N2Cc1ccc(C(F)(F)F)cc1` [Compound 197, 4-(2-acetyl-6,9-dioxo-5-(4-(trifluoromethyl)benzyl)-2,5,8-triazaspiro[3.5]nonan-8-yl)-2-fluorobenzonitrile], for which the “CDMF75 IC15” value was determined as 2.7 µM.

`N#Cc1ccc(N2CC(=O)N(Cc3ccc(C(F)(F)F)cc3)C3(CN(C(N)=O)C3)C2=O)cc1F` [Compound 198, 8-(4-cyano-3-fluorophenyl)-6,9-dioxo-5-(4-(trifluoromethyl)benzyl)-2,5,8-triazaspiro[3.5]nonane-2-carboxamide]: the “CDMF75 IC15” value turned out to be 0.5 µM.

`N#Cc1ccc(N2CC(=O)N(Cc3ccc(C(F)(F)F)cc3)C3(CN(C(=O)NC4CC4)C3)C2=O)cc1F` [Compound 199, 8-(4-cyano-3-fluorophenyl)-N-cyclopropyl-6,9-dioxo-5-(4-(trifluoromethyl)benzyl)-2,5,8-triazaspiro[3.5]nonane-2-carboxamide]: the “CDMF75 IC15” value was 2.3 µM.

As to `Cn1cc(NC(=O)N2CC3(C2)C(=O)N(c2ccc(C#N)c(F)c2)CC(=O)N3Cc2ccc(C(F)(F)F)cc2)cn1` [Compound 200, 8-(4-cyano-3-fluorophenyl)-N-(1-methyl-1H-pyrazol-4-yl)-6,9-dioxo-5-(4-(trifluoromethyl)benzyl)-2,5,8-triazaspiro[3.5]nonane-2-carboxamide], the “CDMF75 IC15” value came to 0.9 µM.

Turning to `CN(C)C(=O)N1CC2(C1)C(=O)N(c1ccc(C#N)c(F)c1)CC(=O)N2Cc1ccc(C(F)(F)F)cc1` [Compound 201, 8-(4-cyano-3-fluorophenyl)-N,N-dimethyl-6,9-dioxo-5-(4-(trifluoromethyl)benzyl)-2,5,8-triazaspiro[3.5]nonane-2-carboxamide], the “CDMF75 IC15” value turned out to be 5.1 µM.

`N#Cc1ccc(N2CC(=O)N(Cc3ccc(C(F)(F)F)cc3)C3(CN(C(=O)C4CC4)C3)C2=O)c(F)c1` [Compound 203, 4-(2-(cyclopropanecarbonyl)-6,9-dioxo-5-(4-(trifluoromethyl)benzyl)-2,5,8-triazaspiro[3.5]nonan-8-yl)-3-fluorobenzonitrile]: the “CDMF75 IC15” value came to 0.6 µM.

As for `N#Cc1ccc(N2CC(=O)N(Cc3ccc(C(F)(F)F)cc3)C3(CN(C(N)=O)C3)C2=O)c(F)c1` [Compound 204, 8-(4-cyano-2-fluorophenyl)-6,9-dioxo-5-(4-(trifluoromethyl)benzyl)-2,5,8-triazaspiro[3.5]nonane-2-carboxamide], the “CDMF75 IC15” value was found to be 0.2 µM.

With `CC(=O)N1CCC2(C1)C(=O)N(c1ccc(C#N)cc1F)CC(=O)N2Cc1ccc(Cl)cc1` (centres unmarked) [Compound 205, 4-(2-acetyl-6-(4-chlorobenzyl)-7,10-dioxo-2,6,9-triazaspiro[4.5]decan-9-yl)-3-fluorobenzonitrile], the “CDMF75 IC15” value was 0.7 µM.

For `CC(=O)N1CC[C@]2(C1)C(=O)N(c1ccc(C#N)cc1F)CC(=O)N2Cc1ccc(C(F)(F)F)cc1` [Compound 209, (S)-4-(2-acetyl-7,10-dioxo-6-(4-(trifluoromethyl)-benzyl)-2,6,9-triazaspiro-[4.5]decan-9-yl)-3-fluorobenzonitrile], the “CDMF75 IC15” value turned out to be 0.5 µM.

As to `COC(=O)N1CC[C@]2(C1)C(=O)N(c1ccc(C#N)cc1F)CC(=O)N2Cc1ccc(Cl)cc1` [Compound 211, methyl (S)-6-(4-chlorobenzyl)-9-(4-cyano-2-fluorophenyl)-7,10-dioxo-2,6,9-triazaspiro-[4.5]decane-2-carboxylate], the “CDMF75 IC15” value was determined as 0.4 µM.

As to `CCC(=O)N1CC[C@]2(C1)C(=O)N(c1ccc(C#N)cc1F)CC(=O)N2Cc1ccc(Cl)cc1` [Compound 214, (S)-4-(6-(4-chlorobenzyl)-7,10-dioxo-2-propionyl-2,6,9-triazaspiro[4.5]decan-9-yl)-3-fluorobenzonitrile], the “CDMF75 IC15” value was determined as 0.5 µM.

In the case of `N#Cc1ccc(N2CC(=O)N(Cc3ccc(C(F)(F)F)cc3)[C@]3(CCN(C(=O)C4COC4)C3)C2=O)c(F)c1` [Compound 215, (S)-3-fluoro-4-(2-(oxetane-3-carbonyl)-7,10-dioxo-6-(4-(trifluoromethyl)benzyl)-2,6,9-triazaspiro[4.5]decan-9-yl)benzonitrile], the “CDMF75 IC15” value was determined as 1.3 µM.

For `COC(=O)N1CC[C@]2(C1)C(=O)N(c1ccc(C#N)cc1F)CC(=O)N2Cc1ccc(C(F)(F)F)cc1` [Compound 216, methyl (S)-9-(4-cyano-2-fluorophenyl)-7,10-dioxo-6-(4-(trifluoromethyl)benzyl)-2,6,9-triazaspiro[4.5]decane-2-carboxylate], the “CDMF75 IC15” value worked out at 0.3 µM.

Turning to `N#Cc1ccc(N2CC(=O)N(Cc3ccc(C(F)(F)F)cc3)[C@]3(CCN(C(=O)C4CCC4)C3)C2=O)c(F)c1` [Compound 217, (S)-4-(2-(cyclobutane-carbonyl)-7,10-dioxo-6-(4-(trifluoromethyl)benzyl)-2,6,9-triazaspiro[4.5]decan-9-yl)-3-fluorobenzonitrile], the “CDMF75 IC15” value turned out to be 0.9 µM.

As to `CCC(=O)N1CC[C@]2(C1)C(=O)N(c1ccc(C#N)cc1F)CC(=O)N2Cc1ccc(C(F)(F)F)cc1` [Compound 218, (S)-4-(7,10-dioxo-2-propionyl-6-(4-(trifluoromethyl)benzyl)-2,6,9-triazaspiro[4.5]decan-9-yl)-3-fluorobenzonitrile], the “CDMF75 IC15” value stood at 0.4 µM.

On to `N#Cc1ccc(N2CC(=O)N(Cc3ccc(C(F)(F)F)cc3)[C@]3(CCN(C(=O)C4CC4)C3)C2=O)c(F)c1` [Compound 219, (S)-4-(2-(cyclopropane-carbonyl)-7,10-dioxo-6-(4-(trifluoromethyl)benzyl)-2,6,9-triazaspiro[4.5]decan-9-yl)-3-fluorobenzonitrile], for which the “CDMF75 IC15” value is 0.4 µM.
